Measured values: patent US10716950B2, “Treatment of thalamocortical dysrhythmia” (priority 2012, dated 2020)
Entries after “also recorded” stand apart in the source; their conditions may differ. Read-outs that look alike come from different tables or passages of the source.

Assays:
[1] = system: conditions associated with thalamocortical dysrhythmia; test: TLVES/Ketamine combination treatment of patients (Example 2); conditions: all three patients; tACS or tRNS 20 minutes; ketamine total dose 0.5-5.0 mg per kg infused over 15-50 minutes
depression = conditions: ketamine alone, cited from earlier work
[2] = system: obsessive-compulsive disorder (OCD); conditions: OCD patients infused with ketamine; compared with depression and CRPS; Pittenger et al. 2012; cited from earlier work
[3] = system: conditions associated with thalamocortical dysrhythmia; test: TMS/Ketamine combination treatment of patients (Example 1)
Experimental: Thirty-five patients were treated with a combination of ketamine and TMS. […] For simplicity of presentation in Table 2, patients receiving treatment more than once a week are shown as receiving a single treatment for that week. Also, intervals are rounded to the nearest week.
Others received a priming TMS treatment prior to the combination treatment. Some patients received neither pretreatment nor priming, although most patients received one or the other. Since the priming treatment is less rigorous than several days of pretreatment, all patients receiving pretreatment were ultimately switched to priming or neither. Pretreatment and or priming treatment were administered based upon diagnosis and patient compliance.

[4] = patient B3, Unipolar Depression & ADD, ketamine combined with TMS
[5] = patient B6, Bipolar Depression, ketamine combined with TMS
[6] = patient B23, Fibromyalgia, PTSD, mixed connective tissue disease, ketamine combined with TMS
[7] = patient B26, Bipolar Disorder, poly-substance abuse, ketamine combined with TMS
[8] = patient C11, Tourette's and secondary depression, ketamine combined with TMS
[9] = patient D8, OCD & secondary depression, ketamine combined with TMS
[10] = patient D20, Depression & frontal lobe disorder, ketamine combined with TMS
[11] = patient H2, Bipolar Depression, ketamine combined with TMS
[12] = patient K10, CRPS & regulatory disorder of childhood, ketamine combined with TMS
[13] = patient N7, Multiple head injuries and depression, ketamine combined with TMS
[14] = patient N13, Bipolar Disorder & chronic neck and back pain, ketamine combined with TMS
[15] = patient N14, Unipolar Depression, ADD, alcohol abuse, concussion, ketamine combined with TMS
[16] = patient N30, Depression, fibromyalgia, back pain, ketamine combined with TMS
[17] = patient O34, ADHD, concussion, back pain, substance abuse, ketamine combined with TMS
[18] = patient Q9, Bipolar Depression, ketamine combined with TMS
[19] = patient R17, Childhood depression, PTSD, poly-substance abuse, ketamine combined with TMS
[20] = patient R32, OCD & secondary depression, poly-substance abuse, ketamine combined with TMS
[21] = patient S1, Generalized anxiety & secondary depression, ketamine combined with TMS
[22] = patient S36, Depression, panic attacks, ketamine combined with TMS
[23] = patient T15, Bipolar Depression, ketamine combined with TMS
[24] = patient T29, Bipolar Disorder, dormant poly-substance abuse, ketamine combined with TMS
[25] = patient W24, Depression, ketamine combined with TMS
[26] = patient Z4, Unipolar Depression & ADD, ketamine combined with TMS
[27] = patient Z27, Childhood onset bipolar disorder, ADD, RSD, ketamine combined with TMS
[28] = patient, Bipolar Disorder, poly-substance abuse, ketamine combined with TMS
[29] = patient, Depression & poly-substance abuse, ketamine combined with TMS
[30] = patient, Unipolar Depression & minor epilepsy, ketamine combined with TMS
[31] = patients having positive outcomes, ketamine combined with TMS

CNC1(c2ccccc2Cl)CCCCC1=O (racemic) [ketamine, (RS)-2-(2-Chlorophenyl)-2-(methylamino)cyclohexanone]
Post-treatment fatigue compared with TMS/ketamine [1]: less of the post-treatment fatigue
Therapeutic benefit compared with TMS/ketamine [1]: same therapeutic benefits as TMS/ketamine
Lasting relief from suicidality or depression (depression): highly transitory
Success rate in the treatment of depression (depression; dosages reportedly 5-15 times higher than with TMS): 60-70%
Lasting relief from suicidality or depression (depression; listed as Ketamine): does not, however, appear to provide lasting relief from suicidality or depression
Effectiveness in treating depression (depression; patients with bipolar disorder who have not responded to anti-depressants): effective
Time to rapid antidepressant effect (depression; persons with major depressive disorder (and bipolar depression)): two
Benefit in OCD patients [2]: rather more limited
Outcome of the patients that completed treatment ([3]; all of the 28 patients that completed treatment, of thirty-five treated, ketamine combined with TMS): positive outcome
Outcome [3, 4]: entered graduate school, got out of abusive relationship
Overall Response [3, 4]: excellent
Outcome [3, 5]: entered graduate school, began to date for first time
Overall Response [3, 5]: excellent
Outcome [3, 6]: off pain medicine, calm, more active
Outcome: adverse effect [3, 6]: experienced severe nausea
Overall Response [3, 6]: excellent
Outcome [3, 7]: returned to college, got married
Overall Response [3, 7]: excellent
Outcome [3, 8]: off of inappropriate medicines, calm, in school
Overall Response [3, 8]: good
Outcome [3, 9]: back to work and active family life
Overall Response [3, 9]: good
Outcome [3, 10]: depression lifted, apathy lifted, pace of thought improved
Overall Response [3, 10]: excellent
Outcome [3, 11]: returned to home-life and active mothering
Overall Response [3, 11]: good
Outcome [3, 12]: off of opioid narcotics, entered trade school, saved subject's life
Overall Response [3, 12]: excellent
Outcome [3, 13]: off of all opioid narcotics, back to church life
Overall Response [3, 13]: excellent
Outcome [3, 14]: off of all opioid narcotics, calm, walking well
Overall Response [3, 14]: very good
Outcome [3, 15]: calm, repaired broken business & family life, sober
Overall Response [3, 15]: very good
Outcome [3, 16]: off opioid narcotics, not depressed, traveling
Overall Response [3, 16]: excellent
Outcome [3, 17]: did very well, significant other coaxed subject back to substance; also recorded: abuse
Overall Response [3, 17]: excellent
Outcome [3, 18]: back to work, repaired broken marriage
Overall Response [3, 18]: excellent
Outcome [3, 19]: learned to read, entered college, sober
Overall Response [3, 19]: excellent
Outcome [3, 20]: sober, calm, back to college
Overall Response [3, 20]: excellent
Outcome [3, 21]: returned to college, sober
Overall Response [3, 21]: excellent
Outcome [3, 22]: did very well, repaired broken marriage and family
Overall Response [3, 22]: excellent
Outcome [3, 23]: back to church life and active family life
Overall Response [3, 23]: excellent
Outcome [3, 24]: entered graduate school, running family business, still sober
Overall Response [3, 24]: excellent
Outcome [3, 25]: back to work and active family life
Overall Response [3, 25]: excellent
Outcome [3, 26]: no longer bedridden, left bad marriage
Overall Response [3, 26]: very good
Outcome [3, 27]: sober, calm, entered college and at work part-time
Overall Response [3, 27]: very good
Outcome [3, 28]: calm, still in early stage of treatment
Overall Response [3, 28]: very good
Outcome [3, 29]: sober, active with family business
Overall Response [3, 29]: excellent
Outcome [3, 30]: relapsed
Overall Response [3, 30]: good
Adverse side effects [3, 31]: reduced adverse side effects
Durability of the positive result [3, 31]: more robust, i.e., long lasting, positive result; also recorded: lasting result
Percentage of patients with positive outcome compared with success rate reported for TMS alone or ketamine alone ([3]; patients that completed treatment, ketamine combined with TMS): higher
Response to previous TMS/ketamine treatment ([3]; three more frail, less robust patients later given TLVES/ketamine): significantly improved
